IC50 data for 57 molecules are collected here from patent US8623862B2, “Derivatives of N-[(1H-pyrazol-1-yl)aryl]-1H-indole or 1H-indazole-3-carboxamide, preparation thereof and applications thereof in therapeutics” (Sanofi, priority 2011, dated 2014).

In the first assay the test system is platelet aggregation. In words: Inhibition of platelet aggregation in vitro (rat blood).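 Note: aggregation induced by ADP added as 4 µL of a 250 µM solution.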 To be noted: rat blood, in vitro; read-out: Inhibition of platelet aggregation in vitro (rat blood). The format is cell-based. The procedure: The measurements of platelet aggregation are performed at 37° C. in glass tubes (Chrono-Log—Kordia aggregometer).
Inhibition of Platelet Aggregation In Vitro (Rat Blood)
The blood is taken from male rats of the Sprague-Dawley strain, weighing 250-300 g.
The platelet-rich plasma (PRP) is obtained by centrifugation of the blood at 300 g for 5 minutes, and the measurements of platelet aggregation are performed as described above.
The results are calculated using the area under the curve of absorbance measured for 6 minutes, and expressed as percentage inhibition.
On to `CCCC(=O)c1cnn(-c2ccc(NC(=O)c3cn(CC(=O)N(C)C)c4cc(C)c(C)cc34)cc2)c1C` [Compound 106], for which the IC50 stood at 2210 nM. Still for that read-out and setting: as for `CCCC(=O)c1cnn(-c2ccc(NC(=O)c3cn(CC(=O)N(C)CCO)c4cc(C)c(C)cc34)cc2)c1C` [Compound 108], the figure is 980 nM; as for `CCCC(=O)c1cnn(-c2ccc(NC(=O)c3cn(CC(=O)NC)c4cc(C)c(C)cc34)cc2)c1C` [Compound 109], 2420 nM; as for `CCCC(=O)c1cnn(-c2ccc(NC(=O)c3cn(CC(=O)N(C)CCN(C)C)c4cc(C)c(C)cc34)cc2)c1C` [Compound 110], 3990 nM. Consider `CCCC(=O)c1cnn(-c2ccc(NC(=O)c3cn(CC(=O)N4CCN(C)CC4)c4cc(Cl)c(Cl)cc34)cc2)c1C` [Compound 111], for which the IC50 was found to be 3700 nM. Still for that read-out and setting: as for `CCCC(=O)c1cnn(-c2ccc(NC(=O)c3cn(CC(=O)N4CCN(C)CC4)c4cc(C)c(Br)cc34)cc2)c1C` [Compound 112], the figure is 360 nM. On the same count and under the same terms, as for `CCCC(=O)c1cnn(-c2ccc(NC(=O)c3cn(CC(=O)N4CCN(C)CC4)c4cc(C)c(Cl)cc34)cc2)c1C` [Compound 113], the figure is 620 nM. For the molecule `CCCC(=O)c1cnn(-c2ccc(NC(=O)c3cn(CC(=O)N4CCN(C)CC4)c4ccc(C)cc34)cc2)c1C` [Compound 114], the IC50 stood at 270 nM. With `CCCC(=O)c1cnn(-c2ccc(NC(=O)c3cn(CC(=O)N4CCN(CCO)CC4)c4ccc(C)cc34)cc2)c1C` [Compound 116], the IC50 is 260 nM.

With `CCCC(=O)c1cnn(-c2ccc(NC(=O)c3cn(CC(=O)N4CCN(CC)CC4)c4ccc(C)cc34)cc2)c1C` [Compound 117], the IC50 was determined as 500 nM. On the same count and under the same terms, as for `CCCC(=O)c1cnn(-c2ccc(NC(=O)c3cn(CC(=O)N4CCN(CC(F)F)CC4)c4ccc(C)cc34)cc2)c1C` [Compound 118], the figure is 290 nM. Turning to `CCCC(=O)c1cnn(-c2ccc(NC(=O)c3cn(CC(=O)N4CCC(N(C)C)C4)c4ccc(C)cc34)cc2)c1C` (stereo not drawn) [Compound 120], the IC50 came out at 270 nM.

In the case of `CCCC(=O)c1cnn(-c2ccc(NC(=O)c3cn(CC(=O)N4CCN(CC5CC5)CC4)c4ccc(C)cc34)cc2)c1C` [Compound 121], the IC50 was found to be 1060 nM.

For `CCCC(=O)c1cnn(-c2ccc(NC(=O)c3cn(CC(=O)N4CCN(C5CC5)CC4)c4ccc(C)cc34)cc2)c1C` [Compound 122], the IC50 came out at 450 nM. Still for that read-out and setting: as for `CCCC(=O)c1cnn(-c2ccc(NC(=O)c3cn(CC(=O)N4CCN5CCCC5C4)c4ccc(C)cc34)cc2)c1C` (stereo not drawn) [Compound 123], the figure is 350 nM; as for `CCCC(=O)c1cnn(-c2ccc(NC(=O)c3cn(CC(=O)N4CCN(C(C)C)CC4)c4ccc(C)cc34)cc2)c1C` [Compound 124], 210 nM; as for `CCCC(=O)c1cnn(-c2ccc(NC(=O)c3cn(CC(=O)N4CCCC(N(C)C)C4)c4ccc(C)cc34)cc2)c1C` (stereo not drawn) [Compound 125], 580 nM. Same read-out and setting: as for `CCCC(=O)c1cnn(-c2ccc(NC(=O)c3cn(CC(=O)N(C)CCNC)c4ccc(C)cc34)cc2)c1C` [Compound 126], the figure is 760 nM. Same read-out and setting: as for `CCCC(=O)c1cnn(-c2ccc(NC(=O)c3cn(CC(=O)N4CCOCC4)c4ccc(C)cc34)cc2)c1C` [Compound 128], the figure is 290 nM; as for `CCCC(=O)c1cnn(-c2ccc(NC(=O)c3cn(CC(=O)N4CCN(CC(F)(F)F)CC4)c4ccc(C)cc34)cc2)c1C` [Compound 129], 650 nM; as for `CCCC(=O)c1cnn(-c2ccc(NC(=O)c3cn(CC(=O)N4CCCN(C)CC4)c4ccc(C)cc34)cc2)c1C` [Compound 130], 470 nM. For the molecule `CCCC(=O)c1cnn(-c2ccc(NC(=O)c3cn(CC(=O)NCCn4ccnc4)c4ccc(C)cc34)cc2)c1C` [Compound 134], the IC50 stood at 950 nM. On the same count and under the same terms, to `CCCC(=O)c1cnn(-c2ccc(NC(=O)c3cn(CC(=O)N4CCN(C)CC4)c4ccc(OC)cc34)cc2)c1C` [Compound 136] belongs 400 nM. Still for that read-out and setting: as for `CCCC(=O)c1cnn(-c2ccc(NC(=O)c3cn(CC(=O)N4CCCCC4CN4CCCC4)c4ccc(C)cc34)cc2)c1C` (stereo not drawn) [Compound 141], the figure is 640 nM; as for `CCCC(=O)c1cnn(-c2ccc(NC(=O)c3cn(CC(=O)N4CCN(CCOCCO)CC4)c4ccc(Cl)cc34)cc2)c1C` [Compound 144], 190 nM; as for `CCCC(=O)c1cnn(-c2ccc(NC(=O)c3cn(CC(=O)N4CCN(CCO)CC4)c4ccc(Cl)cc34)cc2)c1C` [Compound 146], 100 nM. Regarding `CCCC(=O)c1cnn(-c2ccc(NC(=O)c3cn(CC(=O)N4CCN(CCS(C)(=O)=O)CC4)c4ccc(Cl)cc34)cc2)c1C` [Compound 148], the IC50 was 150 nM. The same measure, in the same setting: to `CCCC(=O)c1cnn(-c2ccc(NC(=O)c3cn(CC(=O)N4CCC(N5CCOCC5)CC4)c4ccc(Cl)cc34)cc2)c1C` [Compound 149] belongs 410 nM; to `CCCC(=O)c1cnn(-c2ccc(NC(=O)c3cn(CC(=O)N4CCN(CCN(C)C)CC4)c4ccc(Cl)cc34)cc2)c1C` [Compound 150], 240 nM. As to `CCCCN1CCN(C(=O)Cn2cc(C(=O)Nc3ccc(-n4ncc(C(=O)CCC)c4C)cc3)c3cc(Cl)ccc32)CC1` [Compound 151], the IC50 was determined as 250 nM.

With `CCCC(=O)c1cnn(-c2ccc(NC(=O)c3cn(CC(=O)N4CCN(CCC(=O)OCC)CC4)c4ccc(Cl)cc34)cc2)c1C` [Compound 153], the IC50 came to 290 nM.

The assay is the same for the next values; noted with them: rat platelet-rich plasma, ADP-induced aggregation, area under the curve of absorbance for 6 minutes; read-out: Inhibition of platelet aggregation in vitro (rat blood).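 Note: aggregation induced by ADP added as 4 µL of a 250 µM solution.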
Regarding `CCCC(=O)c1cnn(-c2ccc(NC(=O)c3cn(CC(=O)N4Cc5ccncc5C4)c4ccc(Cl)cc34)nn2)c1C` [Compound 76], the IC50 amounted to 60 nM. On the same count and under the same terms, to `CCCC(=O)c1cnn(-c2ccc(NC(=O)c3cn(CC(=O)N4CCN(C)C(C)C4)c4ccc(Cl)cc34)nn2)c1C` (stereo not drawn) [Compound 77] belongs 90 nM; to `CCCC(=O)c1cnn(-c2ccc(NC(=O)c3cn(CC(=O)NC(C)c4nn[nH]n4)c4ccc(Cl)cc34)nn2)c1C` (stereo not drawn) [Compound 78], 280 nM. On the same count and under the same terms, to `CCCC(=O)c1cnn(-c2ccc(NC(=O)c3cn(CC(=O)N4CCN(C5CCC5)CC4)c4ccc(Cl)cc34)nn2)c1C` [Compound 79] belongs 80 nM.

Turning to `CCCC(=O)c1cnn(-c2ccc(NC(=O)c3cn(CC(=O)N4CCN(CC(=O)NC5CC5)CC4)c4ccc(Cl)cc34)nn2)c1C` [Compound 81], the IC50 came to 40 nM. On the same count and under the same terms, to `CCCC(=O)c1cnn(-c2ccc(NC(=O)c3cn(CC(=O)N4CCN(Cc5noc(C)n5)CC4)c4ccc(Cl)cc34)nn2)c1C` [Compound 82] belongs 50 nM; to `CCCC(=O)c1cnn(-c2ccc(NC(=O)c3cn(CC(=O)NCC(C)(C)N(C)C)c4ccc(Cl)cc34)nn2)c1C` [Compound 83], 330 nM.

Regarding `CCCC(=O)c1cnn(-c2ccc(NC(=O)c3cn(CC(=O)N4CCN5CCCC5C4C)c4ccc(Cl)cc34)nn2)c1C` (stereo not drawn) [Compound 84], the IC50 amounted to 90 nM. Take `CCCC(=O)c1cnn(-c2ccc(NC(=O)c3cn(CC(=O)N4CCN(Cc5ccc(OC)c(F)c5)CC4)c4ccc(Cl)cc34)nn2)c1C` [Compound 85]: the IC50 worked out at 100 nM. Same read-out and setting: to `CCCC(=O)c1cnn(-c2ccc(NC(=O)c3cn(CC(=O)N4CC(N5CCCCC5)C4)c4ccc(Cl)cc34)nn2)c1C` [Compound 86] belongs 390 nM; to `CCCC(=O)c1cnn(-c2ccc(NC(=O)c3cn(CC(=O)N4CCN(CC(=O)OC)CC4)c4ccc(Cl)cc34)nn2)c1C` [Compound 87], 40 nM; to `CCCC(=O)c1cnn(-c2ccc(NC(=O)c3cn(CC(=O)N4CC5CCCN5CC4C)c4ccc(Cl)cc34)nn2)c1C` (stereo not drawn) [Compound 88], 90 nM.

Turning to `CCCC(=O)c1cnn(-c2ccc(NC(=O)c3cn(CC(=O)N4CC5CCCCN5CC4C)c4ccc(Cl)cc34)nn2)c1C` (stereo not drawn) [Compound 89], the IC50 was 170 nM. The same measure, in the same setting: as for `CCCC(=O)c1cnn(-c2ccc(NC(=O)c3cn(CC(=O)N(C)C4CC4)c4ccc(Cl)cc34)nn2)c1C` [Compound 90], the figure is 60 nM; as for `CCCC(=O)c1cnn(-c2ccc(NC(=O)c3cn(CC(=O)N(C)CC4CCOC4)c4ccc(Cl)cc34)nn2)c1C` (stereo not drawn) [Compound 91], 120 nM; as for `CCCC(=O)c1cnn(-c2ccc(NC(=O)c3cn(CC(=O)N4CCN(Cc5ccc(F)cc5)CC4)c4ccc(Cl)cc34)nn2)c1C` [Compound 92], 200 nM. For the molecule `CCCC(=O)c1cnn(-c2ccc(NC(=O)c3cn(CC(=O)N4CCN(CCOCC)CC4)c4ccc(Cl)cc34)nn2)c1C` [Compound 93], the IC50 is 150 nM.

As for `CCCC(=O)c1cnn(-c2ccc(NC(=O)c3cn(CC(=O)N4CCC(OC)CC4)c4ccc(Cl)cc34)nn2)c1C` [Compound 94], the IC50 stood at 180 nM. On the same count and under the same terms, as for `CCCC(=O)c1cnn(-c2ccc(NC(=O)c3cn(CC(=O)N4CCN(CCO)CC4)c4ccc(Cl)cc34)nn2)c1C` [Compound 95], the figure is 50 nM; as for `CCCC(=O)c1cnn(-c2ccc(NC(=O)c3cn(CC(=O)NCc4cc(C)no4)c4ccc(Cl)cc34)nn2)c1C` [Compound 96], 930 nM. On the same count and under the same terms, to `CCCC(=O)c1cnn(-c2ccc(NC(=O)c3cn(CC(=O)N(C)CCN(C)C)c4ccc(Cl)cc34)nn2)c1C` [Compound 97] belongs 90 nM; to `CCCC(=O)c1cnn(-c2ccc(NC(=O)c3cn(CC(=O)N4CCN(CCN(C)C)CC4)c4ccc(Cl)cc34)nn2)c1C` [Compound 98], 70 nM. Still for that read-out and setting: as for `CCCC(=O)c1cnn(-c2ccc(NC(=O)c3cn(CC(=O)N4CCCN(C)CC4)c4ccc(Cl)cc34)nn2)c1C` [Compound 99], the figure is 110 nM; as for `CCCC(=O)c1cnn(-c2ccc(NC(=O)c3cn(CC(=O)N4CCN(CC(=O)N(C)C)CC4)c4ccc(Cl)cc34)nn2)c1C` [Compound 101], 110 nM; as for `CCCC(=O)c1cnn(-c2ccc(NC(=O)c3cn(CC(=O)N4CCN(Cc5ccncc5)CC4)c4ccc(Cl)cc34)nn2)c1C` [Compound 102], 30 nM.

Consider `CCCC(=O)c1cnn(-c2ccc(NC(=O)c3cn(CC(=O)N4CC(N5CCOCC5)C4)c4ccc(Cl)cc34)nn2)c1C` [Compound 104], for which the IC50 was 100 nM.
